Laboratory results as given in the supplement of paper PMC10307832.

Tests used:
Test in all cases: relative viability (nuclei count vs DMSO), 5 days (fraction); higher = more cells survive
[1] = compound: C=CC(=O)Nc1cc(-n2c(=O)ccc3cnc4ccc(-c5ccc(NS(C)(=O)=O)cc5)cc4c32)ccc1C [BMX-IN-1] + C[C@@H](Oc1cc(-c2cnn(C3CCNCC3)c2)cnc1N)c1c(Cl)ccc(F)c1Cl [Crizotinib] (partner 1 µM)
Summary of the method: (§1)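 Nuclei were stained with Hoechst during a one-step fixation (final 0.05% Triton X-100, 1% formaldehyde, 1 ug/ml Hoechst) carried out 5 days after dosing, then counted on 4× images. The cells, lung cancer lines in 1536-well plates, had been dosed by pin tool the day after seeding with one drug alone or a fixed anchor-drug dose plus five library-drug doses (not always all listed) in √10 steps. Relative viability is the nuclei count in treated wells divided by that in vehicle wells, and each value is the median of duplicate plates.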

[2] = compound: C=CC(=O)Nc1cc(-n2c(=O)ccc3cnc4ccc(-c5ccc(NS(C)(=O)=O)cc5)cc4c32)ccc1C [BMX-IN-1] + Cc1nc(NC(=O)N2CCC[C@H]2C(N)=O)sc1-c1ccnc(C(C)(C)C(F)(F)F)c1 [Alpelisib] (partner 2 µM)
Summary of the method: as §1

[3] = compound: C=CC(=O)Nc1cc(-n2c(=O)ccc3cnc4ccc(-c5ccc(NS(C)(=O)=O)cc5)cc4c32)ccc1C [BMX-IN-1] + Nc1ncn([C@H]2C[C@H](O)[C@@H](CO)O2)c(=O)n1 [Decitabine] (partner 2 µM)
Summary of the method: as §1

[4] = compound: C=CCc1cccc(/C=N/NC(=O)CN2CCN(Cc3ccccc3)CC2)c1O [PAC-1] + CC(=O)c1c(C)c2cnc(Nc3ccc(N4CCNCC4)cn3)nc2n(C2CCCC2)c1=O [Palbociclib] (partner 0.5 µM)
Summary of the method: as §1

[5] = compound: C=CCc1cccc(/C=N/NC(=O)CN2CCN(Cc3ccccc3)CC2)c1O [PAC-1] + O=C(CCCCCCC(=O)Nc1ccccc1)NO [Vorinostat] (partner 1 µM)
Summary of the method: as §1

| Cell Line | relative viability ([1]; first compound 0.02 µM) | relative viability ([1]; first compound 0.2 µM) | relative viability ([1]; first compound 0.6325 µM) | relative viability ([1]; first compound 2 µM) | relative viability ([2]; first compound 0.02 µM) | relative viability ([2]; first compound 0.2 µM) | relative viability ([2]; first compound 0.6325 µM) | relative viability ([2]; first compound 2 µM) | relative viability ([3]; first compound 0.02 µM) | relative viability ([3]; first compound 0.2 µM) | relative viability ([3]; first compound 0.6325 µM) | relative viability ([3]; first compound 2 µM) | relative viability ([4]; first compound 0.02 µM) | relative viability ([4]; first compound 0.06325 µM) | relative viability ([4]; first compound 0.2 µM) | relative viability ([4]; first compound 2 µM) | relative viability ([5]; first compound 0.02 µM) | relative viability ([5]; first compound 0.06325 µM) | relative viability ([5]; first compound 0.2 µM) | relative viability ([5]; first compound 2 µM) |
| --- | --- | --- | --- | --- | --- | --- | --- | --- | --- | --- | --- | --- | --- | --- | --- | --- | --- | --- | --- | --- |
| BEN | 1.25 | 1.05 | 0.537 | 0.901 | 1.22 | 1.32 | 0.938 | 1.04 | 0.7 | 0.755 | 0.792 | 0.674 | 0.443 | 0.489 | 0.47 | 0.459 | 0.558 | 0.58 | 0.552 | 0.601 |
| CAL-12T | 0.798 | 0.827 | 0.618 | 0.562 | 1.74 | 1.27 | 1.04 | 1.32 |  |  |  |  | 0.544 | 0.52 | 0.379 | 0.513 | 0.89 | 0.793 | 0.688 | 0.712 |
| COR-L23 | 0.942 | 0.641 | 0.864 | 0.767 | 0.95 | 0.962 | 0.926 | 0.921 | 0.467 | 0.45 | 0.484 | 0.438 | 0.33 | 0.243 |  | 0.277 | 0.415 | 0.429 |  | 0.364 |
| COR-L 105 | 0.832 | 0.892 | 0.727 | 0.583 | 1.33 | 1.05 | 1.11 | 0.886 | 0.563 | 0.671 | 0.654 | 0.672 | 0.367 | 0.402 | 0.379 | 0.461 | 1.08 | 0.817 | 0.817 | 0.801 |
